Reference: PubChem BioAssay (NCI)
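Exposure lasted 48 hours, with cells grown in 96-well plates and compounds tested at five concentrations. Here, GI50 denotes the concentration required for 50% inhibition of growth. TGI is the concentration that stops growth completely.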

What was measured:
Test in all cases: NCI tumour cell line growth inhibition, 48 h
M14 melanoma = tested on: M14 melanoma
T-47D breast = tested on: T-47D breast
HL-60(TB) leukemia = tested on: HL-60(TB) leukemia
PC-3 prostate = tested on: PC-3 prostate
MALME-3M melanoma = tested on: MALME-3M melanoma
TK-10 renal = tested on: TK-10 renal
HS 578T breast = tested on: HS 578T breast
HCC-2998 colon = tested on: HCC-2998 colon
SN12C renal = tested on: SN12C renal
SNB-75 CNS = tested on: SNB-75 CNS
RPMI-8226 leukemia = tested on: RPMI-8226 leukemia
SF-295 CNS = tested on: SF-295 CNS
IGROV1 ovarian = tested on: IGROV1 ovarian
OVCAR-5 ovarian = tested on: OVCAR-5 ovarian
UACC-257 melanoma = tested on: UACC-257 melanoma
OVCAR-3 ovarian = tested on: OVCAR-3 ovarian
SR leukemia = tested on: SR leukemia
NCI-H522 lung = tested on: NCI-H522 lung
NCI-H460 lung = tested on: NCI-H460 lung
OVCAR-4 ovarian = tested on: OVCAR-4 ovarian
CAKI-1 renal = tested on: CAKI-1 renal
786-0 renal = tested on: 786-0 renal
MDA-MB-231 breast = tested on: MDA-MB-231 breast
KM12 colon = tested on: KM12 colon
HOP-62 NSCLC = tested on: HOP-62 NSCLC
K-562 leukemia = tested on: K-562 leukemia
OVCAR-8 ovarian = tested on: OVCAR-8 ovarian
NCI-H23 lung = tested on: NCI-H23 lung
SF-268 CNS = tested on: SF-268 CNS
NCI-H226 lung = tested on: NCI-H226 lung
MDA-MB-435 = tested on: MDA-MB-435
DU-145 prostate = tested on: DU-145 prostate
MOLT-4 leukemia = tested on: MOLT-4 leukemia
UO-31 renal = tested on: UO-31 renal
SF-539 CNS = tested on: SF-539 CNS
BT-549 breast = tested on: BT-549 breast
SK-MEL-28 melanoma = tested on: SK-MEL-28 melanoma
HOP-92 NSCLC = tested on: HOP-92 NSCLC
CCRF-CEM leukemia = tested on: CCRF-CEM leukemia
HT29 colon = tested on: HT29 colon
COLO 205 colon = tested on: COLO 205 colon
SK-MEL-2 melanoma = tested on: SK-MEL-2 melanoma
LOX IMVI melanoma = tested on: LOX IMVI melanoma
MCF7 breast = tested on: MCF7 breast
HCT-15 colon = tested on: HCT-15 colon
SK-MEL-5 melanoma = tested on: SK-MEL-5 melanoma
SNB-19 CNS = tested on: SNB-19 CNS
HCT-116 colon = tested on: HCT-116 colon
U251 CNS = tested on: U251 CNS
EKVX NSCLC = tested on: EKVX NSCLC
ACHN renal = tested on: ACHN renal
A549 NSCLC = tested on: A549 NSCLC
SW-620 colon = tested on: SW-620 colon
A498 renal = tested on: A498 renal
NCI/ADR-RES ovarian = tested on: NCI/ADR-RES ovarian
RXF 393 renal = tested on: RXF 393 renal
SK-OV-3 ovarian = tested on: SK-OV-3 ovarian
UACC-62 melanoma = tested on: UACC-62 melanoma

Structure (SMILES): C=C(C)C(=O)Nc1ccc(-c2c(-c3ccc(Oc4nccc(C)n4)c(F)c3)c3c(N)ncnc3n2C)cc1
- GI50 (M14 melanoma): 5.64 µM
- TGI (M14 melanoma): 20 µM
- GI50 (T-47D breast): 2.97 µM
- TGI (T-47D breast): 35.5 µM
- GI50 (HL-60(TB) leukemia): 4.74 µM
- TGI (HL-60(TB) leukemia): > 100 µM
- GI50 (PC-3 prostate): 6.78 µM
- TGI (PC-3 prostate): 67.5 µM
- GI50 (MALME-3M melanoma): 3.29 µM
- TGI (MALME-3M melanoma): 17 µM
- GI50 (TK-10 renal): 4.98 µM
- TGI (TK-10 renal): 30 µM
- GI50 (HS 578T breast): 1.09 µM
- TGI (HS 578T breast): 4.1 µM
- GI50 (HCC-2998 colon): 7.45 µM
- TGI (HCC-2998 colon): 21 µM
- GI50 (SN12C renal): 2.63 µM
- TGI (SN12C renal): 17.2 µM
- GI50 (SNB-75 CNS): 1.18 µM
- TGI (SNB-75 CNS): 7.32 µM
- GI50 (RPMI-8226 leukemia): 2.74 µM
- TGI (RPMI-8226 leukemia): 17.3 µM
- GI50 (SF-295 CNS): 2.59 µM
- TGI (SF-295 CNS): 13.4 µM
- GI50 (IGROV1 ovarian): 3.1 µM
- TGI (IGROV1 ovarian): 17.4 µM
- GI50 (OVCAR-5 ovarian): 4.43 µM
- TGI (OVCAR-5 ovarian): 20.9 µM
- GI50 (UACC-257 melanoma): 9.27 µM
- TGI (UACC-257 melanoma): 23.6 µM
- GI50 (OVCAR-3 ovarian): 4.77 µM
- TGI (OVCAR-3 ovarian): 18.4 µM
- GI50 (SR leukemia): 2.36 µM
- TGI (SR leukemia): 9.64 µM
- GI50 (NCI-H522 lung): 3.57 µM
- TGI (NCI-H522 lung): 16.1 µM
- GI50 (NCI-H460 lung): 3.05 µM
- TGI (NCI-H460 lung): 13.3 µM
- GI50 (OVCAR-4 ovarian): 2.84 µM
- TGI (OVCAR-4 ovarian): 33.8 µM
- GI50 (CAKI-1 renal): 1.92 µM
- TGI (CAKI-1 renal): 8.23 µM
- GI50 (786-0 renal): 2.43 µM
- TGI (786-0 renal): 30.6 µM
- GI50 (MDA-MB-231 breast): 3.57 µM
- TGI (MDA-MB-231 breast): 22.2 µM
- GI50 (KM12 colon): 3.87 µM
- TGI (KM12 colon): 17 µM
- GI50 (HOP-62 NSCLC): 4.69 µM
- TGI (HOP-62 NSCLC): 20 µM
- GI50 (K-562 leukemia): 3.43 µM
- TGI (K-562 leukemia): > 100 µM
- GI50 (OVCAR-8 ovarian): 4.49 µM
- TGI (OVCAR-8 ovarian): 19.2 µM
- GI50 (NCI-H23 lung): 4.27 µM
- TGI (NCI-H23 lung): 18.4 µM
- GI50 (SF-268 CNS): 1.67 µM
- TGI (SF-268 CNS): 16 µM
- GI50 (NCI-H226 lung): 0.812 µM
- TGI (NCI-H226 lung): 7.46 µM
- GI50 (MDA-MB-435): 7.19 µM
- TGI (MDA-MB-435): 21.3 µM
- GI50 (DU-145 prostate): 3.86 µM
- TGI (DU-145 prostate): 15.3 µM
- GI50 (MOLT-4 leukemia): 2.78 µM
- TGI (MOLT-4 leukemia): > 100 µM
- GI50 (UO-31 renal): 1.18 µM
- TGI (UO-31 renal): 2.98 µM
- GI50 (SF-539 CNS): 1.88 µM
- TGI (SF-539 CNS): 8.89 µM
- GI50 (BT-549 breast): 2.08 µM
- TGI (BT-549 breast): 15.8 µM
- GI50 (SK-MEL-28 melanoma): 4.38 µM
- TGI (SK-MEL-28 melanoma): 17.6 µM
- GI50 (HOP-92 NSCLC): 2.83 µM
- TGI (HOP-92 NSCLC): 32.3 µM
- GI50 (CCRF-CEM leukemia): 5.25 µM
- TGI (CCRF-CEM leukemia): > 100 µM
- GI50 (HT29 colon): 3.22 µM
- TGI (HT29 colon): 14.2 µM
- GI50 (COLO 205 colon): 3.79 µM
- TGI (COLO 205 colon): 13.8 µM
- GI50 (SK-MEL-2 melanoma): 2.7 µM
- TGI (SK-MEL-2 melanoma): 9.74 µM
- GI50 (LOX IMVI melanoma): 2.61 µM
- TGI (LOX IMVI melanoma): 12.8 µM
- GI50 (MCF7 breast): 3.55 µM
- TGI (MCF7 breast): 16.1 µM
- GI50 (HCT-15 colon): 3.11 µM
- TGI (HCT-15 colon): 13.5 µM
- GI50 (SK-MEL-5 melanoma): 2.36 µM
- TGI (SK-MEL-5 melanoma): 8.21 µM
- GI50 (SNB-19 CNS): 10.7 µM
- TGI (SNB-19 CNS): > 100 µM
- GI50 (HCT-116 colon): 5.05 µM
- TGI (HCT-116 colon): 19.8 µM
- GI50 (U251 CNS): 6.21 µM
- TGI (U251 CNS): 25 µM
- GI50 (EKVX NSCLC): 3.43 µM
- TGI (EKVX NSCLC): 17.1 µM
- GI50 (ACHN renal): 3.81 µM
- TGI (ACHN renal): 20.2 µM
- GI50 (A549 NSCLC): 3.6 µM
- TGI (A549 NSCLC): 18.5 µM
- GI50 (SW-620 colon): 8.7 µM
- TGI (SW-620 colon): 25.9 µM
- GI50 (A498 renal): 1.72 µM
- TGI (A498 renal): 9.88 µM
- GI50 (NCI/ADR-RES ovarian): 10.1 µM
- TGI (NCI/ADR-RES ovarian): 31 µM
- GI50 (RXF 393 renal): 0.0946 µM
- TGI (RXF 393 renal): 0.984 µM
- GI50 (SK-OV-3 ovarian): 14.7 µM
- TGI (SK-OV-3 ovarian): 69.2 µM

Structure (SMILES): COC(=O)c1c(O)ccc2c1c1c(n2Cc2cccc(C)c2)C(=O)c2ccccc2C1
- TGI (M14 melanoma): 47.1 µM
- TGI (T-47D breast): 32.7 µM
- TGI (HL-60(TB) leukemia): > 75 µM
- TGI (UACC-62 melanoma): > 75 µM
- TGI (PC-3 prostate): 27.6 µM
- TGI (MALME-3M melanoma): 69.5 µM
- TGI (TK-10 renal): > 75 µM
- TGI (HS 578T breast): > 75 µM
- TGI (SN12C renal): 27.6 µM
- TGI (RPMI-8226 leukemia): 31 µM
- TGI (SF-295 CNS): > 75 µM
- TGI (IGROV1 ovarian): > 75 µM
- TGI (OVCAR-5 ovarian): > 75 µM
- TGI (UACC-257 melanoma): > 75 µM
- TGI (OVCAR-3 ovarian): > 75 µM
- TGI (SR leukemia): 29.4 µM
- TGI (NCI-H460 lung): > 75 µM
- TGI (OVCAR-4 ovarian): 25.3 µM
- TGI (CAKI-1 renal): 46.3 µM
- TGI (MDA-MB-231 breast): > 75 µM
- TGI (HOP-62 NSCLC): 51.6 µM
- TGI (K-562 leukemia): > 75 µM
- TGI (OVCAR-8 ovarian): > 75 µM
- TGI (NCI-H23 lung): > 75 µM
- TGI (SF-268 CNS): > 75 µM
- TGI (NCI-H226 lung): > 75 µM
- TGI (MDA-MB-435): 42.7 µM
- TGI (DU-145 prostate): > 75 µM
- TGI (MOLT-4 leukemia): 44.5 µM
- TGI (UO-31 renal): > 75 µM
- TGI (SF-539 CNS): 61.4 µM
- TGI (BT-549 breast): > 75 µM
- TGI (SK-MEL-28 melanoma): 0.71 µM
- TGI (HOP-92 NSCLC): > 75 µM
- TGI (CCRF-CEM leukemia): 36.8 µM
- TGI (HT29 colon): 19.9 µM
- TGI (COLO 205 colon): 22.3 µM
- TGI (SK-MEL-2 melanoma): > 75 µM
- TGI (LOX IMVI melanoma): 67.1 µM
- TGI (MCF7 breast): > 75 µM
- TGI (HCT-15 colon): > 75 µM
- TGI (SK-MEL-5 melanoma): > 75 µM
- TGI (SNB-19 CNS): > 75 µM
- TGI (HCT-116 colon): 16.7 µM
- TGI (U251 CNS): 66.1 µM
- TGI (EKVX NSCLC): 10.4 µM
- TGI (ACHN renal): > 75 µM
- TGI (A549 NSCLC): > 75 µM
- TGI (SW-620 colon): > 75 µM
- TGI (A498 renal): > 75 µM
- TGI (NCI/ADR-RES ovarian): > 75 µM
- TGI (RXF 393 renal): 30 µM
- TGI (SK-OV-3 ovarian): > 75 µM
